Results as given in patent US20080051372A1, “METHODS UTILIZING CELL-SIGNALING LYSOPHOSPHOLIPIDS” (THE SCRIPPS RESEARCH INSTITUTE, priority 2006, published 2008).

Tests used:
[1] = system: TR mouse cerebral cortical immortalized neuroblast cells; experiment: LPA-like activity bioassay, cell rounding / neurite retraction; assay type: cell-based; conditions: concentrations from 1 to 100 nM of LPA; 15-30 minutes
Protocol: LPA-like activity was assayed by measuring morphological changes in TR mouse cerebral cortical immortalized neuroblast cells as previously described (Chun and Jaenisch, Clonal cell lines produced by infection of neocortical neuroblast using multiple oncogenes transduced by retroviruses, 1996, Mol Cell Neurosci, 18:379-383; Hecht et al., Ventricular zone gene-1 (vzg-I) encodes a lysophoshpatidic acid receptor expressed in neurogeneic regions of the developing cerebral cortex, 1996, J Cell Bio, 135:1071-1083, incorporated herein by reference; Ishii et al., Functional comparisons of the lysophosphatidic acid receptors, LPA(A1)IVZG-I/EDG-2, LP(A2)/EDG-4, and LP(A3)/EDG-7 in neuronal cell lines using a retrovirus expression system, 2000, Molecular Pharmacology, 58(5):895-902, incorporated herein by references; Fukushima et al., Lysophosphatidic acid influences the morphology and motility of young, postmitotic cortical neurons, 2002, Mol Cell Neurosci, 20(2):271-282, incorporated herein by reference). […] After this period, cells were fixed with 4% PFA and round cells were counted under phase-contrast optics (A-F). […]
After this period, cells were fixed with 4% PFA and round cells were counted under phase-contrast optics (A-F) The cell number was expressed by percentage of protophasmic, non-round population. […]

[2] = system: cortical neuronal progenitors plated onto astrocyte monolayers derived from LPA1 LPA2 null mice; experiment: co-culture on LPA1 LPA2 null astrocytes previously treated with LPA; assay type: cell-based, mouse; conditions: P>0.05
Protocol: In order to address the involvement of LPA receptor in LPA-astrocyte effects on neuronal morphogenesis, cortical neuronal progenitors derived from E14 wild type mice were plated onto cortical astrocyte mono layers derived from LPA, LPA2 null mice previously treated with LPA. After 24 hours, cells were immunostained for the neuronal marker, β-tubulin III, and the number of neurons and arborization of their neurites were measured. […] The scale bar in FIG. 8 corresponds to 50 μm.

[3] = system: astrocyte primary cultures from wild type and LPA double-null newborn mice; experiment: astrocyte morphology and GFAP immunostaining after LPA; assay type: cell-based, mouse; conditions: 1 μM LPA for 24 hours; wild type and LPA1 LPA2 null astrocytes
Text: The Generation of Receptor-Null Mice Allows not Only Direct Examination of the systemic roles of LPA receptors in vivo (Contos et al., Requirement of the LPA1 lysophosphatidic acid receptor gene in normal suckling behavior, 2000, PNAS, 97(24):13384-13389, incorporated herein by reference; Contos et al., Characterization of LPA(2) (Edg4) and LPA(I)/LPA(2) (edg2/Edg4) lysophosphatidic acid receptor knockout mice: signaling deficits without obvious pehotypic abnormality attributable to LPA(2), 2002, Mol Cell Bio, 22(19):6921-6929, incorporated herein by reference) but it also contributes for further elucidation of LPA receptor-specific signaling pathways in receptor-null primary cells (Ishii et al., Functional comparisons of the lysophosphatidic acid receptors, LP(A1))/VZG-1/EDG-4, and LP(A3)/EDG-7 in neuronal cell lines using a retrovirus expression system, 2000, Mol. Pharmacology, 58:895-902, incorporated herein by reference). To determine whether LPA effects in the co-culture system are mediated by specific LPA receptors, astrocyte mono layers derived from mice with null mutations in both LPA1 and LPA2 receptors were prepared. Astrocyte primary cultures were prepared from cerebral cortex of wild type and LPA double-null newborn mice. Astrocyte mono layers were kept in DMEM/F12 medium supplemented with 10% fetal calf serum for days until reaching confluence. […]

[4] = system: cortical neuronal progenitors on retroviral infected LPA1/LPA2 double-null astrocytes; experiment: retroviral rescue of LPA1/LPA2 double-null astrocytes, co-culture; assay type: cell-based, mouse
Protocol: Retroviral vectors expressing LPA1 or LPA2 were reported previously (Ishii et al., Functional comparisons of the lysophosphatidic acid receptors, LP(A1)/VZG-1/EDG-4, and LP(A3)/EDG-7 in neuronal cell lines using a retrovirus expression system, 2000, Mol. Pharmacology, 58:895-902, incorporated herein by reference) as depicted in FIG. 8A. LPA1/LPA2 double-null astrocytes were infected with the epitope-tagged LPA1, LPA2, or empty-vector control retrovirus in 4 μg/ml of polybrene to the media of subconfluent proliferating astrocytes plated in a monolayer. Plates were centrifuged (700 g) at 28° C. for 2 hours, and the astrocytes cultured for 48 hours in fresh media. Astrocytes were serum starved for another 24 hours and then used in the assays. Receptor expression was confirmed by epitope-tagged immunolabeling of GFP-positive cells.
The retroviral infected LPA1/LPA2 double-null astrocytes were treated with LPA. The astrocytes monolayers were co-cultured with cortical neuronal progenitors derived from E14 wild type mice. After 24 hours, cells were immunostained for the neuronal marker, β-tubulin III, and the number of neurons and arborization of their neurites were measured.

[5] = system: cortical neuronal progenitors (E14) plated onto cortical astrocyte monolayers; experiment: neuron-astrocyte co-culture on astrocytes previously treated with LPA; assay type: cell-based, mouse
Protocol: All animal protocols were approved by the Animal Research Committee of The Scripps Research Institute, conformed to National Institutes of Health guidelines and public law. Astrocyte primary cultures were prepared from cerebral cortex of newborn mice as previously described (de Sampaio e Spohr et al., Neuron-glia interaction effects on GFAP gene: a novel role for transforming growth factor-31, 2002, Eur J Neurosci, 16:2059-2069, incorporated herein by reference and Sousa et al., Glial fibrillary acidic protein gene promoter is differently modulated by transforming growth factor-beta 1 in astrocytes from distinct brain regions, 2004, Eur Neurosci, 19(7):1721-1730, incorporated by reference in its entirety). Astrocytes cultures were generated from C57B1/6 and Swiss mice. Briefly, after the mice were anesthetized, they were decapitated, brain structures were removed and the meninges were carefully stripped off. Dissociated cells were plated onto glass coverslips in 24 wells-plate (Corning Incorporated, NY), previously coated with polyornithine (1.5 μg/ml, mol. wt. 41,000, Sigma Chemical Co., St. Louis, Mo.), in DMEM/F12 medium supplemented with 10% fetal calf serum (Invitrogen, Carlsbad, Calif.). The cultures were incubated at 37° C. in a humidified 5% CO2, 95% air chamber for 10 days until reaching confluence. For experiments with LPA null mice, embryos from LPA, LPA2 double-heterozygous females (on a mixed background C57B1/6×129SW) were genotyped by PCR using DNA isolated from a small part of the tail (Contos et al., Requirement of the LPA, lysophosphatidic acid receptor gene in normal suckling behavior, 2000, PNAS, 97(24):13384-13389, incorporated herein by reference; Contos et al., Characterization of LPA(2) (Edg4) and LPA(I)/LPA(2) (edg2/Edg4) lysophosphatidic acid receptor knockout mice: signaling deficits without obvious pehotypic abnormality attributable to LPA(2), 2002, Mol Cell Bio, 22(19):6921-6929, incorporated herein by reference).
After reaching confluence, glial mono layers were washed three times with serum-free DMEM/F12 medium and incubated as previously described for an additional day in serum-free medium. Cultures were then treated with 1 μM LPA (Oleoyl-LPA, Avanti Polar Lipids) in DMEM/F12 supplemented with 0.1% fatty-acid free bovine serum albumin (FAFBSA, Sigma) for 4 hours. Control astrocyte carpets were treated with DMEM/F12 supplemented with 0.1% FAFBSA. Medium was then replaced by DMEM/F12 without serum and used as substrate in neuron-astrocyte assays.
For neuronal cultures, timed-pregnant BALB/c females (Simonsen Laboratories), C57B1/6 females or Swiss females were killed by halothane followed by cervical dislocation, and embryos were removed at the day 14 (E14). Cortical progenitors were prepared from cerebral hemispheres from E14 embryos as previously described (Martinez and Gomes, 2002, Neuritogenesis induced by thyroid hormone-treated astrocytes is mediated by epidermal growth factor/mitogen-activated protein kinase-phosphatidylinositol 3-kinase pathways and involves modulation of extracellular matrix proteins, J Biol Chem, 277:49311-49318, incorporated herein by reference; Sousa et al., 2004, Glial fibrillary acidic protein gene promoter is differently modulated by transforming growth factor-beta 1 in astrocytes from distinct brain regions, 2004, Eur J Neurosci 19(7):1721-17302004, incorporated herein by reference). Briefly, cells were freshly dissociated from cerebral hemispheres and 1×10^5 cells plated onto glial monolayer carpets non-treated or previously treated with LPA or LPA-conditioned medium for 4 hours as previously described. In the case of LPA CM assays, the medium was not replaced after 4 hours of treatment; instead it was left until the end of co-culture. Co-cultures were kept for 24 hours at 37° C. in a humidified 5% CO2, 95% air atmosphere. […]

[6] = system: cultured embryonic hippocampal neurons; conditions: cited from earlier work
[7] = double-null astrocytes infected with either the LPA1 or LPA2 retrovirus, treated with LPA
[8] = neurons plated onto LPA-treated astrocytes, P<0.05

Substance | rounding of TR cells [1] | neuronal population ([2]; LPA1 LPA2 null astrocytes treated with LPA, 24 hours) | neuronal death ([2]; treated vs non-treated LPA1 LPA2 null astrocytes) | astrocyte morphology [3] | prevalence of greater than two neurites/neurons [4, 7] | β-tubulin III cells [4, 7] | neuronal differentiation ([4]; double-null astrocytes infected with empty vector control virus (SOO3), primed with LPA) | number of caspase positive cells (activated caspase-3) ([5]; after 24 hours of coculture, control vs treated cultures, P>0.05) | increase in the number of β-tubulin III positive cells ([5]; astrocytes treated with 1 μM LPA for 4 hours, 24 hours co-culture, vs control astrocytes, P<0.05) | decrease in the number of aneuritic neurons [5, 8] | neurons extending three or more neurites [5, 8] | number of neurons with two neurites [5, 8] | total number of cells ([5]; progenitor cells plated onto LPA-astrocyte monolayers, P>0.05) | neurite outgrowth [6]
Oleoyl-LPA | induced rounding | did not affect neuronal population | did not differ | did not affect astrocyte morphology | increased prevalence | increased | did not result in an increase | no difference | 41% | 64% | dramatic increase | significant increase | not altered | –
cyclic phosphatidic acid [cPA] | – | – | – | – | – | – | – | – | – | – | – | – | – | promoted neurite outgrowth
